From ChEMBL document CHEMBL1123744, “A quantitative structure-activity relationship analysis of some 4-aminodiphenyl sulfone antibacterial agents using linear free energy and molecular modeling methods” (J Med Chem, 1987)

Test system: Mycobacterium lufu
Assay: In vitro inhibition of Mycobacterium lufu dihydopterate synthase.

Row | pC | Compound
1 | 6.19 | Cc1cc(N)ccc1S(=O)(=O)c1ccc(N)cc1
2 | 5.75 | CN(C)c1ccc(S(=O)(=O)c2ccc(N)cc2)cc1
3 | 5.7 | CCNc1ccc(S(=O)(=O)c2ccc(N)cc2)cc1O
4 | 5.15 | CC(=O)Nc1ccc(S(=O)(=O)c2ccc(N)cc2)cc1
5 | 5.99 | CCCCNc1ccc(S(=O)(=O)c2ccc(N)cc2)c(OC)c1
6 | 4.93 | Nc1ccc(S(=O)(=O)c2ccc([N+](=O)[O-])cc2N)cc1
7 | 5.82 | Nc1ccc(S(=O)(=O)c2ccc(O)cc2)cc1
8 | 4.89 | Nc1ccc(S(=O)(=O)c2ccc(Cl)cc2)cc1
9 | 5.89 | CNc1ccc(S(=O)(=O)c2ccc(N)cc2)cc1
10 | 4.9 | NNC(=O)c1ccc(S(=O)(=O)c2ccc(N)cc2)cc1
11 | 6.32 | Nc1ccc(S(=O)(=O)c2ccc(N)cc2Cl)cc1
12 | 5.64 | CCCNc1ccc(S(=O)(=O)c2ccc(N)cc2)cc1O
13 | 5.12 | COc1ccc(S(=O)(=O)c2ccc(N)cc2)cc1
14 | 5.65 | Nc1ccc(S(=O)(=O)c2ccccc2N)cc1
15 | 5.49 | CCNc1ccc(S(=O)(=O)c2ccc(N)cc2)cc1OC

Further lines, the molecule ahead of its results:

Row | Compound | pC
16 | CCNc1ccc(S(=O)(=O)c2ccc(N)cc2)cc1 | 5.56
17 | COc1cc(S(=O)(=O)c2ccc(N)cc2)ccc1N | 5.56
18 | Cc1ccc(S(=O)(=O)c2ccc(N)cc2)cc1 | 5.09
19 | COC(=O)CNc1ccc(S(=O)(=O)c2ccc(N)cc2)cc1 | 5.65
20 | Nc1ccc(S(=O)(=O)c2ccc(N)cc2N)cc1 | 5.99
21 | COc1cc(N)ccc1S(=O)(=O)c1ccc(N)cc1 | 5.73
22 | Nc1ccc(S(=O)(=O)c2ccc([N+](=O)[O-])cc2)cc1 | 4.51
23 | Nc1ccc(S(=O)(=O)c2ccc(N)c(O)c2)cc1 | 6.07
24 | Nc1ccc(S(=O)(=O)c2ccc(N)cc2[N+](=O)[O-])cc1 | 5.87
25 | Nc1ccc(S(=O)(=O)c2ccc(NCC(=O)O)cc2)cc1 | 6.06
26 | CCCNc1ccc(S(=O)(=O)c2ccc(N)cc2)c(O)c1 | 5.71
27 | CCCNc1ccc(S(=O)(=O)c2ccc(N)cc2)cc1OC | 5.4
28 | N#Cc1cc(N)ccc1S(=O)(=O)c1ccc(N)cc1 | 5.65
29 | CCNc1ccc(S(=O)(=O)c2ccc(N)cc2)c(O)c1 | 6.14
30 | CCNc1ccc(S(=O)(=O)c2ccc(N)cc2)c(OC)c1 | 5.75
31 | Nc1ccc(S(=O)(=O)c2ccc(C(=O)O)cc2)cc1 | 5.44
32 | COC(=O)c1ccc(S(=O)(=O)c2ccc(N)cc2)cc1 | 4.93
33 | Nc1ccc(S(=O)(=O)c2ccc(N)cc2)cc1 | 5.92
34 | Nc1ccc(S(=O)(=O)c2ccccc2[N+](=O)[O-])cc1 | 5.61
35 | Nc1ccc(S(=O)(=O)c2ccccc2)cc1 | 4.92
36 | CCCNc1ccc(S(=O)(=O)c2ccc(N)cc2)c(OC)c1 | 5.92
